The values below come from patent US20060100224A1, “Piperidine ouracil used as a medicament for treating bacterial infections” (priority 2002, published 2006).

For this test, the target named is T1, Pol III from S. aureus (PolC) (Staphylococcus aureus, UniProt P0C1P9).
T1 construct: His tag (pET15b) (N); made in house; host or cells: E. coli BL21(DE3)
T1 sequence (P0C1P9 1-1435): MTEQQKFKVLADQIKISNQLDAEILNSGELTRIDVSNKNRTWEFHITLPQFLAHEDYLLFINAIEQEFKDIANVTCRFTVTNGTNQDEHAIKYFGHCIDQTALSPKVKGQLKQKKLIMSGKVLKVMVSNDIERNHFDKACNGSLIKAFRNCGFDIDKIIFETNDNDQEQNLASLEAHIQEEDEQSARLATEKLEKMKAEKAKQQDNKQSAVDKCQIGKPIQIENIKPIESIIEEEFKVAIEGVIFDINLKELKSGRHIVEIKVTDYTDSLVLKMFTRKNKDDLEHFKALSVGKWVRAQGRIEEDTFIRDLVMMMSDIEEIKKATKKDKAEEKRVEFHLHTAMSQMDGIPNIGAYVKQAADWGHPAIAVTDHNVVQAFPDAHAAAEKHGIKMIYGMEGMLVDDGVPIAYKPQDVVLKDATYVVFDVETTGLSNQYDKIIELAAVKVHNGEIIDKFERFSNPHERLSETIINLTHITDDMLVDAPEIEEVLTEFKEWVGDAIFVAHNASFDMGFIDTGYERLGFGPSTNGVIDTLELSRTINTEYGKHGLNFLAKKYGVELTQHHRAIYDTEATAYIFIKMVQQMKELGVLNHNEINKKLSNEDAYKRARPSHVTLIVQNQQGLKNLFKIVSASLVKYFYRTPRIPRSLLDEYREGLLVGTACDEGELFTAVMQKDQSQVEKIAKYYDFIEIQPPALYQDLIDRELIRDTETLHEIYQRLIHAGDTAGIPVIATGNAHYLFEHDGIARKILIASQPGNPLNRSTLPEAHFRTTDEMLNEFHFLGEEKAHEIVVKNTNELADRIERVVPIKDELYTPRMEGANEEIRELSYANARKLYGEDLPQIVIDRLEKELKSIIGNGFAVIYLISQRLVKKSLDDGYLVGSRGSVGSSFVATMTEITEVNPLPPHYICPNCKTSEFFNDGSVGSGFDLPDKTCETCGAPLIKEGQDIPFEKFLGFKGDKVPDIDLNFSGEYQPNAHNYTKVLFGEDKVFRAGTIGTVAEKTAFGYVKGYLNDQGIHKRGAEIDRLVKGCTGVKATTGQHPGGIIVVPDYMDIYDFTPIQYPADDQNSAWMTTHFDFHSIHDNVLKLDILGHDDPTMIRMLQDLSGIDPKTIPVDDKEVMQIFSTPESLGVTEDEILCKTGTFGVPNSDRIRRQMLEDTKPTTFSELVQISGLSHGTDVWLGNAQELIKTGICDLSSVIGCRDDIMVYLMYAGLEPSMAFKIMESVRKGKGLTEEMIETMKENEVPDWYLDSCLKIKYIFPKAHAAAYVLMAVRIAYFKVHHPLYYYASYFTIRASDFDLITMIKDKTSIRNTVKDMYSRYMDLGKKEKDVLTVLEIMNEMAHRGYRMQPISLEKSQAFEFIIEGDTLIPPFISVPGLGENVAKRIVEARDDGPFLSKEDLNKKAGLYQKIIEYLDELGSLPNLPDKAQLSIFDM
The experiment in a line: Determination of the IC50 for Polymerase III (PolC, luciferase-coupled pyrophosphate detection). The test is classed as biochemical. As to conditions: purified PolC ~2 nM, 30° C., 30 min, activated calf thymus DNA. An excerpt:
Cloning, Expression and Purification of Pol III from S. aureus
To clone polC with an N-terminal His tag, the structural gene polC is amplified from S. aureus genomic DNA with the aid of PCR. The primers SAPol 31 5′-[…]-3′ and SAPolrev 5′-[…]-3′ are used to introduce the NdeI and BamHI restriction cleavage sites respectively in front of and behind the amplified gene. After the PCR product which is 4300 bp in size has been digested with NdeI and BamHI, it is ligated into the vector pET15b (Novagen, USA), which has likewise been digested with NdeI and BamHI, and transformed into E. coli XL-1 Blue.
After transformation into E. coli BL21(DE3), the cells are cultivated for expression of PolC at 30° C. in LB medium with 100 μg/ml ampicillin until the OD595 nm is 0.5, cooled to 18° C. and, after addition of 1 mM IPTG, incubated for a further 20 hours. The cells are harvested by centrifugation, washed once in PBS with 1 mM PMSF and taken up in 50 mM NaH2PO4 pH 8.0, 10 mM imidazole, 2 mM β-mercaptoethanol, 1 mM PMSF, 20% glycerol. The cells are disrupted using a French press at 12,000 psi, the cell detritus is removed by centrifugation ([…]×g, 120 min, 4° C.) and the supernatant is stirred with an appropriate amount of Ni-NTA-agarose (from Quiagen, Germany) at 4° C. for 1 hour. After the gel matrix has been packed into a column it is washed with 50 mM NaH2PO4 pH 8.0, 2 mM β-mercaptoethanol, 20 mM imidazole, 10% glycerol, and the purified protein is then eluted with the same buffer containing 100 mM imidazole. The purified protein is mixed with 50% glycerol and stored at −20° C.
Determination of the IC50 for Polymerase III
The activity of PolC is measured in an enzymatically coupled reaction, with the pyrophosphate formed during the polymerization being converted with the aid of ATP sulfurylase into ATP, which is detected using firefly luciferase. The reaction mixture contains, in a final volume of 50 μl, 50 mM Tris/Cl pH 7.5; 5 mM DTT, 10 mM MgCl2, 30 mM NaCl, 0.1 mg/ml BSA, 10% glycerol, 20 μM each dATP, dTTP, dCTP, 2U/ml activated calf thymus DNA (from Worthington, USA), 20 μM APS and 0.06 mM luciferin. The reaction is started by adding purified PolC in a final concentration of ˜2 nM and is incubated at 30° C. for 30 min. The amount of pyrophosphate formed is then converted into ATP by adding ATP sulfurylase (Sigma, USA) in a final concentration of 5 nM and incubating at 30° C. for 15 min. After addition of 0.2 nM firefly luciferase, the luminescence is measured in a luminometer for 60 s. The IC50 is reported as the concentration of an inhibitor which leads to 50% inhibition of the enzymic activity of PolC.

The term IC50 denotes the point on the concentration scale where inhibition reaches its midpoint. Read a low IC50 as higher potency. With `O=C(c1nc[nH]n1)N1CCCC(Cn2c(=O)cc(Nc3ccc4c(c3)CCC4)[nH]c2=O)C1` (stereo not drawn) [Example 17], the midpoint of inhibition, the IC50, lay at 340 nM. In the case of `O=C(c1cccnc1)N1CCCC(Cn2c(=O)cc(Nc3ccc4c(c3)CCC4)[nH]c2=O)C1` (stereo not drawn) [Example 26], the midpoint of inhibition, the IC50, lay at 220 nM. `Cc1nnsc1-c1nc(C(=O)N2CCC(Cn3c(=O)cc(Nc4ccc5c(c4)CCC5)[nH]c3=O)CC2)cs1` [Example 21] registered an IC50 of 110 nM.

`Cc1ccoc1C(=O)N1CCCC(Cn2c(=O)cc(Nc3ccc4c(c3)CCC4)[nH]c2=O)C1` (stereo not drawn) [Example 39] returned a 50% inhibitory concentration (IC50) of 330 nM. In the case of `O=C(c1csnn1)N1CCC(Cn2c(=O)cc(Nc3ccc4c(c3)CCC4)[nH]c2=O)CC1` [Example 13], the IC50 worked out at 90 nM. `CCc1cc(Nc2cc(=O)n(CC3CCN(C(=O)c4ccno4)CC3)c(=O)[nH]2)ccc1C` [Example 9] registered an IC50 of 140 nM.
